Laboratory results taken from patent US20250082786A1, “FLUORESCENT MARKERS FOR NEUROFIBRILLAR TANGLES AND USES THEREOF” (FONDAZIONE ISTITUTO ITALIANO DI TECNOLOGIA, priority 2021, published 2025).

What was measured:
[1] = system: intracellular TAU aggregates in human iPSC-derived cortical neurons; experiment: Probe staining of hiPSC-derived cortical neurons, colocalization with anti-T22 and anti-AT8 antibodies; assay type: cell-based; conditions: 100 μM probe, 30 minutes at 37° C., cortical neurons at 30 days in vitro
Procedure: FIG. 3. (A) Representative binarized fluorescence image showing human iPSC-derived cortical neurons at 30 days in vitro after incubation with BT1 (100 μM) for 30 minutes at 37° C. and staining with anti-T22 and anti-AT8 antibodies. • (B) Representative binarized fluorescence image showing human iPSC-derived cortical neurons at 30 days in vitro after incubation with TAU1 (100 μM) for 30 minutes at 37° C. and staining with anti-T22 and anti-AT8 antibodies. • (C) Fluorescence composite of the above representative images. […] (D) The probe specificity is calculated as the ratio between the antibody intensity within the area covered by BT1 or TAU1 out of the total antibody intensity (n=3), as determined using Image J. Images were acquired at the FV10i confocal microscope using a […] magnification. […]
Fixed hiPSC-derived cortical neurons and RGCs were permeabilized with 0.2% Triton X-100 (Merck Life Science) in 1×TBS and incubated for 1 hour in blocking solution containing 1×TBS, 0.2% Triton X-100, and 5% goat serum (Merck Life Science). […] Fluorescence intensity per field of view was determined using the Software Image J.
The ability of the BT1 probe to stain specifically intracellular TAU aggregates was determined as a function of the antibody fluorescent signal detected within the binarized probe signal.

[2] = system: intracellular TAU aggregates in human iPSC-derived retinal ganglion cells; experiment: Probe staining of hiPSC-derived retinal ganglion cells, colocalization with anti-T22 and anti-AT8 antibodies; assay type: cell-based; conditions: 100 μM probe, 30 minutes at 37° C., retinal ganglion cells at 30 days in vitro
Procedure: FIG. 4. (A) Representative binarized fluorescence image showing human iPSC-derived retinal ganglion cells at 30 days in vitro after incubation with BT1 (100 μM) for 30 minutes at 37° C. and staining with anti-T22 and anti-AT8 antibodies. • (B) Representative binarized fluorescence image showing human iPSC-derived retinal ganglion cells at 30 days in vitro after incubation with TAU1 (100 μM) for 30 minutes at 37° C. and staining with anti-T22 and anti-AT8 antibodies. • (C) Fluorescence composite of the above representative images. The fluorescent image of BT1 was obtained using excitation at 520 nm with a 555/15 nm filter in detection; TAU1 was obtained using excitation at 470 nm with a 510/5 nm filter in detection. […] Cell nuclei were stained with DAPI. • (D) The probe specificity is calculated as the ratio between the antibody intensity within the area covered by BT1 or TAU1 out of the total antibody intensity (n=3), as determined using Image J. Images were acquired at the FV10i confocal microscope using a 60× magnification.
The differentiation protocol was a revisited version of Sluch V. et al, 2017 with minor modifications. Human iPSCs were dissociated to single cells with 1× Accutase (Merck Life science) and plated on growth factor-reduced Matrigel coated plates at a density of 1000 cells/mm2 in mTeSR Plus supplemented with 10 μM Rock-inhibitor Y-27632 (Peprotech). […]

CC1=CC(/C=C/c2ccc(/C=C/c3ccc(N(C)C)cc3)cc2)=[N+]2C1=Cc1cccn1[B-]2(F)F [BT1, 3-((E)-4-((E)-4-(dimethylamino)styryl)styryl)-5,5-difluoro-1-methyl-5H-dipyrrolo[1,2-c:2′,1′-f][1,3,2]diazaborinin-4-ium-5-uide]
Ability to detect phosphorylated (AT8-positive) aggregates [1]: higher ability to detect phosphorylated aggregates when compared to the TAU1 probe | Colocalization of probe signal with AT8 versus T22 antibody signal [1]: higher colocalization with AT8 signal in respect to T22 | Ability to detect phosphorylated (AT8-positive) aggregates [2]: higher ability to detect phosphorylated aggregates when compared to the TAU1 probe | Colocalization of probe signal with AT8 versus T22 antibody signal [2]: higher colocalization with AT8 signal in respect to T22
